Assay results published in patent publication US11912723B2, “KRAS modulators and uses thereof” (Quanta Therapeutics, Inc., priority 2022, dated 2024).

Tests used:
Assay type in all cases: binding
wtNRAS/RAF1 = biological target: T1, wtNRAS/RAF1 (Homo sapiens, UniProt P01111); experiment: Protein-protein interaction (PPI) HTRF assay w.t.NRAS/RAF1
T1 construct: (1-169); His6-SUMO (N, cleaved yes); made in house; host or cells: E. coli (printed for the KRAS and RAF1 constructs; not explicitly for NRAS)
Description: (§1) Biotinylated KRAS wt and KRAS G12DNV proteins were expressed and purified in conditions similar to those previously reported (Tran, et al., 2021) (Zhang, et al., 2020). Briefly, KRAS (1-169) proteins were expressed in E. coli at 18° C. with an upstream TEV cleavage site (ENLFYQS) followed an Avi tag sequence ([…]). KIRAS expression constructs contained both a His6 and maltose-binding protein (MBP) tags at the N-terminus for Ni-NTA column purification prior to overnight TEV cleavage and MBP column purification. The avi-tagged NRAS expression construct contained both a His6 tag and SUMO cleavage sige at the N-terminus for Ni-NTA column purification followed by His-ULP1 digestion overnight. All avi-tagged RAS proteins were dialyzed into buffer containing ATP, biotin, and BirA followed by purification over a second Ni-NTA column and then run over a size exclusion HiLoad™ 26/600 Superdex™ column in 20 mM HEPES, pH 7.5, 300 mM NaCl, 5 mM MgCl2, and 1 mM TCEP. Fractions containing the protein of interest were pooled, concentrated, and confirmed by intact mass spectrometry. To prepare ‘GTP’ loaded KRAS and NRAS, biotinylated KRAS or NRAS was nucleotide exchanged from GDP-bound protein to GppNHp-bound (Jena Biosciences, NU-401-50) protein in the presence of alkaline phosphatase and excess GppNHp as previously described and the resulting nucleotide content was confirmed by HPLC reverse phase analytical chromatography (Donohue, et al., 2019) (Tran, et al., 2021).
(§2) His-tagged RAF1 (52-131) was similarly expressed in E. coli at 18° C. overnight with an upstream TEV cleavage site. His-tagged RAF1 expression construct contained both a His6 and MBP tags at the N-terminus for Ni-NTA column purification followed by MBP-tagged TEV digestion overnight. RAF1 protein samples were further purified over a MBP column followed by a Ni-NTA column and a second MBP column. The fractions containing the protein of interest were pooled, concentrated, and further purified over a HiLoad™ 16/600 Superdex™ 75 pg size exclusion column into 20 mM HEPES, pH8.0, 200 mM NaCl, 5 mM TCEP.
(§3) When RAS proteins are in the active GTP-bound conformation, they bind the effector protein RAF1 at the N-terminus Ras-binding domain (RBD, residues 52-131) (Tran, et al., 2021). Homogenous time resolved fluorescence (HTRF) was used to monitor the interaction between wt or mutant KRAS and RAF1 or wt NRAS and RAFT. Compounds were assayed in the presence of KRAS G12D/V and RAF1 versus wt KRAS to assess activity against mutant and w.t. KRAS. Similarly, compounds were then assayed in the presence of w.t. NRAS and RAF1 to assess RAS isoform selectivity. In all assay formats, His-tagged RAF1 protein was incubated with the HTRF donor, anti-6His Tb Cryptate gold (Cisbio 61DB10RDF), and biotinylated RAS proteins were incubated with the HTRF acceptor, streptavidin-d2 (CisBio 610SADLA). The intensity of the fluorescence signal emitted is proportional to binding between the two proteins. The donor solution was prepared by mixing 16 nM His-tagged RAF1 in protein dilution buffer with 1:100 anti-6His Tb cryptate in PPI-Terbium detection buffer. 16 nM biotinylated RAS protein was diluted into protein dilution buffer (50 mM Tris-HCl pH 7.5, 150 mM NaCl, 0.1 mM MgCl2, 1 mM TCEP, 0.005% Tween20) and mixed with 1:2000 Streptavidin-d2 diluted in PPI-Terbium detection buffer (CisBio 61DB10RDF). 50× compound in DMSO was mixed with 16 nM KRAS-acceptor solution and incubated for 30 minutes at room temperature. After compound pre-incubation with KRAS, the RAF1 donor solution was added to the KRAS-acceptor solution and incubated for 1 hour at room temperature. The fluorescence signal emitted was monitored at 665 nm and 615 nm using an Envision multimode plate reader. The HTRF ratio (665/615) was calculated and normalized to 0% inhibition in the absence of compound and 100% inhibition in the presence of untagged RAF1 protein. […]

KRAS G12V/RAF1 = biological target: T2, KRAS G12V/RAF1 (Homo sapiens, UniProt P01116, G12V); experiment: Protein-protein interaction (PPI) HTRF assay KRAS G12V/RAF1; conditions: KRASG12V/RAF1
T2 construct: KRAS (1-169) proteins were expressed in E. coli at 18° C; His6-MBP (N, cleaved yes); made in house; host or cells: E. coli
Description: as §1, §2, §3

wtKRAS/RAF1 = biological target: T3, wtKRAS/RAF1 (Homo sapiens, UniProt P01116); experiment: Protein-protein interaction (PPI) HTRF assay w.t.KRAS/RAF1
T3 construct: KRAS (1-169) proteins were expressed in E. coli at 18° C; His6-MBP (N, cleaved yes); made in house; host or cells: E. coli
Description: as §1, §2, §3

KRAS G12D/RAF1 = biological target: T4, KRAS G12D/RAF1 (Homo sapiens, UniProt P01116, G12D); experiment: Protein-protein interaction (PPI) HTRF assay KRAS G12D/RAF1; conditions: KRAS G12D/RAF1, GppNHp-loaded KRAS; 30 minutes pre-incubation
T4 construct: KRAS (1-169) proteins were expressed in E. coli at 18° C; His6-MBP (N, cleaved yes); made in house; host or cells: E. coli
Procedure, shortened: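 IC50 values come from the 665/615 HTRF ratio, scaled between no-compound (0% inhibition) and untagged RAF1 (100%). GppNHp-exchanged, biotinylated RAS (1-169) solution at 16 nM met compound for 30 min at room temperature. Then 16 nM His-tagged RAF1 (52-131) donor solution was added and incubated 1 h.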

T4 sequence (P01116 1-169 isoform P01116-2 G12D): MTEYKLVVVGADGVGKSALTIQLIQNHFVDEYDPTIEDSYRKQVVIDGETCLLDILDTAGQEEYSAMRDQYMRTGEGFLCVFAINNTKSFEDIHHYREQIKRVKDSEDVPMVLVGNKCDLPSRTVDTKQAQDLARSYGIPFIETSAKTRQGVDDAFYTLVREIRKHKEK
T1 sequence (P01111 1-169): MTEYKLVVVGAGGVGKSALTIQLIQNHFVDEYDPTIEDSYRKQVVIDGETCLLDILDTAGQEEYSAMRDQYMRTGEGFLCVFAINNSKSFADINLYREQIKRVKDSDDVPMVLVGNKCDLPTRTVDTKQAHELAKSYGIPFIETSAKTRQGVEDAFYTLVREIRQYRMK
T2 sequence (P01116 1-169 isoform P01116-2 G12V): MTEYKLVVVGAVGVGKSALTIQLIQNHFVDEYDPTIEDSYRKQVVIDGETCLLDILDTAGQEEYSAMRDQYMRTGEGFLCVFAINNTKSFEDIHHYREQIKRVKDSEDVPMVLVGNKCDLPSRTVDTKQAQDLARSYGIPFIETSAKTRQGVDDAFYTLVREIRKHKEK
T3 sequence (P01116 1-169 isoform P01116-2): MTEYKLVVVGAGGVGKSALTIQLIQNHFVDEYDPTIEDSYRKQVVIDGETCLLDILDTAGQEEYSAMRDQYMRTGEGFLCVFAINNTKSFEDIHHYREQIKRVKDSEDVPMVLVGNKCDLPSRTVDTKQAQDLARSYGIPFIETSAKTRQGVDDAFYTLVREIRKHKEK

Question: With `C#Cc1c(C(=O)N(C)C)nn2c1CN(c1nc(OC[C@@]34CCCN3C[C@H](F)C4)nc3c1CN(C)[C@@]1(CCCc4ccccc41)C3)CCC2` [Compound 81, 3-ethynyl-5-[(7S)-2-[[(2R,8S)-2-fluoro-1,2,3,5,6,7-hexahydropyrrolizin-8-yl]methoxy]-6-methyl-spiro[5,8-dihydropyrido[4,3-d]pyrimidine-7,1′-tetralin]-4-yl]-N,N-dimethyl-4,6,7,8-tetrahydropyrazolo[1,5-a][1,4]diazepine-2-carboxamide] as the compound, how does the IC50 (wtNRAS/RAF1) read?
Answer: Its IC50 is greater than 100 µM.

Question: What about the IC50 (KRAS G12V/RAF1) of the same compound?
Answer: The IC50 was 10 to 100 µM.

Question: And the IC50 (wtKRAS/RAF1)?
Answer: Its IC50 is 10 to 100 µM.

Question: What about the IC50 (KRAS G12D/RAF1) of the same compound?
Answer: The IC50 was 10 to 100 µM.

Question: Which IC50 (wtNRAS/RAF1) does the source give for `Cc1nnc(-c2nn3c(c2Cl)CN(c2nc(OC[C@@]45CCCN4C[C@H](F)C5)nc4c2CN(C)[C@@]2(CCCc5ccccc52)C4)CCC3)n1C` [Compound 90, (7S)-4-[3-chloro-2-(4,5-dimethyl-1,2,4-triazol-3-yl)-4,6,7,8-tetrahydropyrazolo[1,5-a][1,4]diazepin-5-yl]-2-[[(2R,8S)-2-fluoro-1,2,3,5,6,7-hexahydropyrrolizin-8-yl]methoxy]-6-methyl-spiro[5,8-dihydropyrido[4,3-d]pyrimidine-7,1′-tetralin]] here?
Answer: The IC50 was greater than 100 µM.

Question: And the IC50 (KRAS G12V/RAF1)?
Answer: Its IC50 is 10 to 100 µM.

Question: What about the IC50 (wtKRAS/RAF1) of the same compound?
Answer: Its IC50 is greater than 100 µM.

Question: What about the IC50 (KRAS G12D/RAF1) of the same compound?
Answer: The IC50 was 10 to 100 µM.

Question: What does the source list for `CN(C)C(=O)c1nn2c(c1Cl)CN(c1nc(OC[C@@]34CCCN3C[C@H](F)C4)nc3c1CN(C)[C@@]1(CCc4cccc(O)c41)C3)CCC2` [Compound 96, 3-chloro-5-[(7S)-2-[[(2R,8S)-2-fluoro-1,2,3,5,6,7-hexahydropyrrolizin-8-yl]methoxy]-7′-hydroxy-6-methyl-spiro[5,8-dihydropyrido[4,3-d]pyrimidine-7,1′-indane]-4-yl]-N,N-dimethyl-4,6,7,8-tetrahydropyrazolo[1,5-a][1,4]diazepine-2-carboxamide]?
Answer: IC50 (wtNRAS/RAF1): > 100 µM; IC50 (KRAS G12V/RAF1): 10 to 100 µM; IC50 (wtKRAS/RAF1): > 100 µM; IC50 (KRAS G12D/RAF1): 10 to 100 µM

Question: How did the IC50 (KRAS G12D/RAF1) turn out when `CN(C)C(=O)c1nn2c(c1Cl)CN(c1nc(OC[C@@]34CCCN3C[C@H](F)C4)nc3c1CN(C)[C@@]1(CCc4c(F)ccc(F)c41)C3)CCC2` [Compound 61, 3-chloro-5-[(7S)-4′,7′-difluoro-2-[[(2R,8S)-2-fluoro-1,2,3,5,6,7-hexahydropyrrolizin-8-yl]methoxy]-6-methyl-spiro[5,8-dihydropyrido[4,3-d]pyrimidine-7,1′-indane]-4-yl]-N,N-dimethyl-4,6,7,8-tetrahydropyrazolo[1,5-a][1,4]diazepine-2-carboxamide] was run?
Answer: The IC50 was 10 to 100 µM.

Question: How did the IC50 (KRAS G12D/RAF1) turn out when `CN(C)C(=O)c1nn2c(c1Cl)CN(c1nc(OC[C@@]34CCCN3C[C@H](F)C4)nc3c1CN(C)[C@@]1(CCc4cccc(Cl)c41)C3)CCC2` [Compound 69, 3-chloro-5-[(7S)-7′-chloro-2-[[(2R,8S)-2-fluoro-1,2,3,5,6,7-hexahydropyrrolizin-8-yl]methoxy]-6-methyl-spiro[5,8-dihydropyrido[4,3-d]pyrimidine-7,1′-indane]-4-yl]-N,N-dimethyl-4,6,7,8-tetrahydropyrazolo[1,5-a][1,4]diazepine-2-carboxamide] was run?
Answer: Its IC50 is 10 to 100 µM.

Question: `CN(C)C(=O)c1nn2c(c1Cl)CN(c1nc(OC[C@@]34CCCN3C[C@H](F)C4)nc3c1CN(C)[C@@]1(CCCc4ccccc41)C3)CCC2` [Compound 64, 3-chloro-5-[(7S)-2-[[(2R,8S)-2-fluoro-1,2,3,5,6,7-hexahydropyrrolizin-8-yl]methoxy]-6-methyl-spiro[5,8-dihydropyrido[4,3-d]pyrimidine-7,1′-tetralin]-4-yl]-N,N-dimethyl-4,6,7,8-tetrahydropyrazolo[1,5-a][1,4]diazepine-2-carboxamide] was tested. Which IC50 (wtNRAS/RAF1) did it give?
Answer: Its IC50 is greater than 100 µM.

Question: And the IC50 (KRAS G12V/RAF1)?
Answer: Its IC50 is 10 to 100 µM.

Question: And the IC50 (KRAS G12D/RAF1)?
Answer: The IC50 was 10 to 100 µM.

Question: Which IC50 (KRAS G12D/RAF1) does the source give for `CN(C)C(=O)c1nn2c(c1Cl)CN(c1nc(OCC3(CN4CCOCC4)CC3)nc3c1CO[C@@]1(CCc4c(Cl)cccc41)C3)CCC2` [Compound 47, 3-chloro-5-[(7S)-4′-chloro-2-[[1-(morpholinomethyl)cyclopropyl]methoxy]spiro[5,8-dihydropyrano[4,3-d]pyrimidine-7,1′-indane]-4-yl]-N,N-dimethyl-4,6,7,8-tetrahydropyrazolo[1,5-a][1,4]diazepine-2-carboxamide] here?
Answer: The IC50 was greater than 100 µM.

Question: With `CN(C)C(=O)c1cc2n(n1)CCCN(c1nc(OC[C@@]34CCCN3C[C@H](F)C4)nc3c1CO[C@]1(CCc4c(Cl)cccc41)C3)C2` [Compound 27B, 5-[(7R)-4′-chloro-2-[[(2R,8S)-2-fluoro-1,2,3,5,6,7-hexahydropyrrolizin-8-yl]methoxy]spiro[5,8-dihydropyrano[4,3-d]pyrimidine-7,1′-indane]-4-yl]-N,N-dimethyl-4,6,7,8-tetrahydropyrazolo[1,5-a][1,4]diazepine-2-carboxamide] as the compound, how does the IC50 (KRAS G12D/RAF1) read?
Answer: Its IC50 is 10 to 100 µM.

Question: For `CN1Cc2c(nc(OC[C@@]34CCCN3C[C@H](F)C4)nc2N2CCCCCC2)C[C@]12CCc1c(Cl)cccc12` [Compound 28A, (7S)-4-(azepan-1-yl)-4′-chloro-2-[[(2R,8S)-2-fluoro-1,2,3,5,6,7-hexahydropyrrolizin-8-yl]methoxy]-6-methyl-spiro[5,8-dihydropyrido[4,3-d]pyrimidine-7,1′-indane]], which IC50 (KRAS G12D/RAF1) is on record?
Answer: Its IC50 is greater than 100 µM.

Question: `CN(C)C(=O)c1cc2n(n1)CCCN(c1nc(OC[C@@]34CCCN3C[C@H](F)C4)nc3c1COC1(CCCc4c(Cl)cc(O)cc41)C3)C2` (mixture of isomers) [Compound 43, 5-[5′-chloro-7′-hydroxy-2-[[rac-(2R,8S)-2-fluoro-1,2,3,5,6,7-hexahydropyrrolizin-8-yl]methoxy]spiro[5,8-dihydropyrano[4,3-d]pyrimidine-7,1′-tetralin]-4-yl]-N,N-dimethyl-4,6,7,8-tetrahydropyrazolo[1,5-a][1,4]diazepine-2-carboxamide] was tested. Which IC50 (KRAS G12D/RAF1) did it give?
Answer: Its IC50 is 10 to 100 µM.

Question: Which IC50 (KRAS G12D/RAF1) does the source give for `F[C@H]1CN2CCC[C@@]2(COc2nc3c(c(N4C[C@H]5CC[C@@H](C4)N5)n2)COC2(CCc4c(Cl)cccc42)C3)C1` (stereo partly drawn) [Compound 2, 4′-((1R,5S)-3,8-diazabicyclo[3.2.1]octan-3-yl)-4-chloro-2′-(((2R,7aS)-2-fluorotetrahydro-1H-pyrrolizin-7a(5H)-yl)methoxy)-2,3,5′,8′-tetrahydrospiro[indene-1,7′-pyrano[4,3-d]pyrimidine]] here?
Answer: The IC50 was 10 to 100 µM.

Question: How did the IC50 (KRAS G12D/RAF1) turn out when `F[C@H]1CN2CCC[C@@]2(COc2nc3c(c(N4CCCCCC4)n2)COC2(CCCc4c(Br)cccc42)C3)C1` (stereo partly drawn) [Compound 5, 4-(azepan-1-yl)-5′-bromo-2-[[(2R,8S)-2-fluoro-1,2,3,5,6,7-hexahydropyrrolizin-8-yl]methoxy]spiro[5,8-dihydropyrano[4,3-d]pyrimidine-7,1′-tetralin]] was run?
Answer: The IC50 was 10 to 100 µM.

Question: How did the IC50 (KRAS G12D/RAF1) turn out when `Oc1ccc2c(c1)C1(CCC2)Cc2nc(OC[C@@]34CCCN3C[C@H](F)C4)nc(N3CCCCCC3)c2CO1` (single isomer, unassigned) [Compound 7] was run?
Answer: Its IC50 is greater than 100 µM.
